Patent US20050100983A1, “Cell-free methods for identifying compounds that affect toll-like receptor 9 (TLR9) signaling” (Coley Pharmaceutical GmbH, priority 2003, published 2005)

What was measured:
murine TLR9 = conditions: read-out: concentration for half-maximal activation of murine TLR9; cited from earlier work
[1] = biological target: T1, mTLR9ect (extracellular domain of murine TLR9 fused to human IgG1-Fc) (Mus musculus, UniProt Q9EQU3); assay: SPR biosensor analysis of mTLR9ect binding to immobilized CpG-DNA; conditions: pH 7.4
T1 construct: mTLR9ect (aa 1-816); made in house
T1 sequence (Q9EQU3 26-816): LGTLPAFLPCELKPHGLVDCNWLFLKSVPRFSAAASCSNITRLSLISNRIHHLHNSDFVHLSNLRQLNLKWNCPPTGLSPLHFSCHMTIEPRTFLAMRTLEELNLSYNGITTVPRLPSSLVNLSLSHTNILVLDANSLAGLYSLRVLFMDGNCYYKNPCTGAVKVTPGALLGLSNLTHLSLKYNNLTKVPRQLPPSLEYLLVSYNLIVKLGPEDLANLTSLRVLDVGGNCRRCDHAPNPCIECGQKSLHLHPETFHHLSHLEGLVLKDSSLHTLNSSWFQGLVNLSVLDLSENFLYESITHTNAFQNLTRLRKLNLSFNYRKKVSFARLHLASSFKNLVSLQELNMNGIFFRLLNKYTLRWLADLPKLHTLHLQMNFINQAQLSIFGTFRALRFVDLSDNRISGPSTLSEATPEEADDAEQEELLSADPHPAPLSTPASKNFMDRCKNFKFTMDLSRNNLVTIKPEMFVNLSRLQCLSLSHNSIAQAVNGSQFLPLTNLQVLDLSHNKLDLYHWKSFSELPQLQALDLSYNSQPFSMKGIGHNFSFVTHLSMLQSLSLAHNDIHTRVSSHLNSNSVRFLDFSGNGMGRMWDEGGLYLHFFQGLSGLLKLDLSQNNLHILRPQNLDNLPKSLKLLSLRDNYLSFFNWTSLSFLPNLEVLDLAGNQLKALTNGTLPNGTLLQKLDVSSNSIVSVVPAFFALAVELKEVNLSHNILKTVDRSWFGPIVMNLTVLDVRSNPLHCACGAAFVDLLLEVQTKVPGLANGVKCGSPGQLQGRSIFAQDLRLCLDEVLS

[2] = biological target: T1, mTLR9ect (extracellular domain of murine TLR9 fused to human IgG1-Fc); assay: as above
Excerpt: Protein. Recombinant fusion proteins consisting of the extracellular domain of Toll-like receptors mTLR9ect (aa 1-816), mTLR9ect-mut (see below) (aa 1-816), hTLR9ect (aa 1-815) and mTLR2ect (aa 1-587) fused to human IgG1-Fc were constructed by amplifying the corresponding extracellular domain and ligating the fragment in frame into a pcDNA3.1(−) (Invitrogen, Netherlands) vector containing the coding sequence for human IgG1-Fc. Fusion proteins were stably expressed in HEK 293 cells and purified from cell lysates by protein A affinity chromatography.
SPR biosensor analysis. Real-time binding of TLR9 or TLR2 was measured by surface plasmon resonance biosensor technology using the BiaCore X system (Uppsala, Sweden). For analysis of TLR9 and TLR2 interaction, biotinylated CpG-DNA and non-CpG-DNA, or biotinylated Pam3CysK4 and PHCK4, respectively, were loaded in running buffer (50 mM MES, 150 mM NaCl, 1 mM MgCl2 at pH 6.5) on SA chips precoated with streptavidin (Biacore AB, Uppsala, Sweden). Non-CpG-DNA or PHCK4 (Wiesmuller K H et al. (1989) Vaccine 7:29-33) served as reference for CpG-DNA and Pam3CysK4 interaction (structure or sequence in Table 1). […] TLR proteins were introduced at 200 nM or as indicated in 40 μl running buffer at a flow rate of 10 μl/min. Binding was measured at 25° C. for 750 s (delay time 300 s). […] Sensorgrams were recorded and kinetic data were calculated by the BiaCore Evaluation program (Biacore, version 3.0.1). Regeneration of the chip was performed by injection of 10 μl 50 mM NaOH, 1 M NaCl and extensive re-equilibration.
For detailed analysis of TLR9-CpG-DNA interaction, surface plasmon resonance (SPR) biosensor based technology was used with CpG- and non-CpG-DNA immobilized onto separate flow cells of a streptavidin-coated chip. Under these settings non-CpG-DNA served as reference for specific binding (see Methods). Binding of mTLR9ect to DNA was CpG-sequence-specific and increased in a dose-dependent manner. […] Using the 1:1 binding model of the BioEvaluation software as fitting algorithm and on the basis of four different mTLR9ect concentrations ranging from 50 to 300 nM, a dissociation constant (Kd) of 200 nM was obtained with low chi-squared residuals (4,76). […] Weber AN et al. (2003) Nat. Immunol. 4:794-800. Furthermore the concentration of CpG-DNA 1668 (SEQ ID NO:1) for half-maximal activation of murine TLR9 has been recently calculated as 70 nM which correlates well with the KD obtained here. Bauer S et al. (2001) Proc. Natl. Acad. Sci. U.S.A. 98:9237-9242. […] This difference in affinity correlates with the observed species-specific variance in CpG-motif recognition, as well as activation potential. Bauer S et al. (2001) Proc. Natl. Acad. Sci. U.S.A. 98:9237-9242.

mTLR9ect = biological target: T2, mTLR9ect (Mus musculus, UniProt Q9EQU3); assay: UV-crosslinking of mTLR9ect with 32P-labeled DNA and SDS-PAGE; type: binding, murine; conditions: SDS-PAGE, complex at 150 kDa
T2 construct: mTLR9ect (aa 1-816); made in house
T2 sequence (Q9EQU3 26-816): T1 sequence (Q9EQU3 26-816)
Excerpt: FIG. 1B is an image of an SDS-PAGE gel depicting purified proteins from FIG. 1A UV-crosslinked with ^32P-labeled CpG- or non-CpG-DNA, separated by SDS-PAGE, and autoradiographed. TLR9 and free DNA are highlighted.
Bauer S et al. (2001) Proc. Natl. Acad. Sci. U.S.A. 98:9237-9242. To assess binding of TLR9 to CpG-DNA, a recombinant fusion protein consisting of the extracellular domain of murine TLR9 and human IgG 1-Fc (mTLR9ect) was constructed. The extracellular domain of murine TLR2 also fused to IgG1-Fc (mTLR2ect) served as control. Proteins were expressed in HEK 293 cells and purified via protein A affinity chromatography (FIG. 1A). Under denaturing and non-reducing conditions mTLR9ect and mTLR2ect are approximately 10% in a monomeric and 90% in a dimeric form. Dimerization of the proteins is probably mediated by the IgG 1-Fc fusion partner which forms disulfide bonds (FIG. 1A). Initially, binding of mTLR9ect to radiolabeled DNA was determined by UV-crosslinking and subsequent SDS-PAGE.

5′-TCCATGACGTTCCTGATGCT-3′ (chemistry not given here) [CpG-DNA 1668, synthetic CpG oligodeoxynucleotide, TLR9 ligand]
EC50 (murine TLR9): 70 nM | TLR9 binding to CpG-DNA [1]: weak | dissociation of TLR9 from CpG-DNA [1]: fairly rapidly | Kd ([2]; 1:1 binding model, four mTLR9ect concentrations 50 to 300 nM, running buffer pH 6.5, 25° C., read-out: dissociation constant (Kd)): 200 nM | Binding of mTLR9ect to DNA ([2]; SPR, non-CpG-DNA as reference, pH 6.5): CpG-sequence-specific | release of bound mTLR9ect by free injected DNA ([2]; competition, free DNA added in dissociation phase): dose dependently released bound mTLR9ect | TLR9 binding to CpG-DNA ([2]; pH 6.5 or 5.5): strong | dissociation of TLR9 from CpG-DNA ([2]; pH 6.5 or 5.5): weak dissociation | effect of pre-incubation of mTLR9ect with DNA on binding to chip-immobilized CpG-DNA ([2]; pre-incubation prior to SPR analysis): abolished binding | binding of mTLR9ect to radiolabeled DNA (mTLR9ect): bound
